Experimental data from patent US20200171030A1, “DUAL INHIBITORS OF ALK5 AND P38A MAP KINASE” (INTEGRAL BIOSCIENCES PRIVATE LIMITED, priority 2018, published 2020).
Where a name gives a salt, the structure may show the parent alone. Read-outs that look alike come from different tables or passages of the source.

Assays:
TGFBR1 (ALK5) = molecular target: T1, TGFBR1 (ALK5) (Homo sapiens, UniProt P36897); test: ALK5 kinase assay (LanthaScreen Terbium labeled TR-FRET); assay type: biochemical; details: for inhibition at 0.1 µM: 100 nM concentration of compound, read-out: Enzyme Activity TGFBR1 (ALK5) % Inhibition at 100 nM
T1 sequence (P36897 34-503): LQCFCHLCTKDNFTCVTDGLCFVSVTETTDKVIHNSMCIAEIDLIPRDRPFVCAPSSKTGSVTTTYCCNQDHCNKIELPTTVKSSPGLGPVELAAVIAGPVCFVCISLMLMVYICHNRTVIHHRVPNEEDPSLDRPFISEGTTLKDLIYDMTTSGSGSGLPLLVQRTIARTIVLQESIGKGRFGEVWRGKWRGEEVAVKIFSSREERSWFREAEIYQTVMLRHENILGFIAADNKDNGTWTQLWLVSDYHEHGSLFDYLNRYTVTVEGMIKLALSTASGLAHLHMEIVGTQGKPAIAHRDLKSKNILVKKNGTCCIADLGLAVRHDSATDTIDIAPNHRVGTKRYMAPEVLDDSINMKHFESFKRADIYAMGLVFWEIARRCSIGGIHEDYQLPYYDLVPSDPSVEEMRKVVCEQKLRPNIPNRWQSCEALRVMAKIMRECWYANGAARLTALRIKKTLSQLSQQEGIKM
Procedure: ALK5 Kinase Assay for IC50 Determination:
IC50 values of compounds against TGFβ kinase was determined by LanthaScreen™ Terbium Labeled TR-FRET assay. Kinase assays were performed in IX kinase buffer (# PV6135, Invitrogen, Life Technologies Grand Island, N.Y.) where total reaction volume was 10 μL in low-volume 384-well plates (#4511,Corning). Serially diluted compounds (3-fold) were incubated with TGFβ kinase (6 nM) for 10 min, following which a mixture of ATP (10 μM) (# A1852, Sigma, St-Louis, Mo.) and fluorescent-PolyGT substrate (200 nM) (# PV3610, Invitrogen, Life Technologies Grand Island, N.Y.) was added and incubated in dark at room temperature for 1 h. After 1 h, 10 μL stop solution containing Terbium labeled antibody (4 nM) (# PV3529, Invitrogen, Life Technologies Grand Island, N.Y.) and EDTA (# E5134, Sigma, St-Louis, Mo.) (20 mM) in TR-FRET dilution buffer (# PV3574, Invitrogen, Life Technologies Grand Island, N.Y.) was added. Readings were taken in a Synergy Neo Plate reader (BioTek, Winooski) at single excitation of 340 nm and Dual emission at 495 nm and 520 nm respectively.
The % activity of test samples was calculated as (Sample−Min)×100/(Max−Min). [Max: DMSO control, complete reaction with enzyme with DMSO and Min: No enzyme with DMSO]. Percent inhibition (100-% activity) was fitted to the “four-parameter logistic model” in XLfit for determination of IC50 values.

MAPK14/p38α kinase = molecular target: T2, MAPK14/p38α kinase (Homo sapiens, UniProt Q16539); test: MAPK14/p38α kinase assay (LanthaScreen TR-FRET); assay type: biochemical; details: for inhibition at 0.1 µM: 100 nM concentration of compound
T2 construct: purchased ThermoFisher PV3304
T2 sequence (Q16539 whole entry): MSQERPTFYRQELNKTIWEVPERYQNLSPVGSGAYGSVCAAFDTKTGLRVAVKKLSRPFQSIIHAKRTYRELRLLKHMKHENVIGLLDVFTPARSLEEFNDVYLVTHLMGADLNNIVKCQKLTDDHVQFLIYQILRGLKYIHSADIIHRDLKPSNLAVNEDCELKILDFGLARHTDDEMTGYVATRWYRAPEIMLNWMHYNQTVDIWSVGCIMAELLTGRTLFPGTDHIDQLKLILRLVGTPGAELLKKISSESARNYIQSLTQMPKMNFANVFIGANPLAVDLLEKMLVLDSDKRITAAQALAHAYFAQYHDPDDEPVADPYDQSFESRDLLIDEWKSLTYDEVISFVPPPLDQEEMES
Procedure: MAPK14/p38α Kinase Assay for IC50 Determination:
IC50 values of compounds against MAPK14/P38α kinase were determined by Lanthascreen based TR-FRET assay. Kinase reactions were performed in a 10 μL volume in low-volume 384-well plates. The concentration of substrate was maintained at 400 nM in the assay, and the kinase reaction buffer (1×; Cat # PV3189, ThermoFisher) consisted of 50 mM HEPES pH 7.5, 0.01% BRIJ-35, 10 mM MgCl2, and 1 mM EGTA. Serially diluted compounds (3-fold) in DMSO (0.5% in final reaction) were incubated with cocktail of MAPK14/p38α kinase (20 ng/ml; Cat # PV3304, ThermoFisher), Substrate GFP-ATF2 (19-96), (0.4 μM; Cat # PV4445, ThermoFisher), ATP (90 μM; Cat # PV3227, ThermoFisher) and buffer. Kinase reactions were allowed to proceed for 1 hour at room temperature before EDTA (10 mM; Cat # P2825, ThermoFisher) and LanthaScreen™ Tb-antipATF2 (pThr71) Antibody (2 nM; Cat # PV4451, ThermoFisher) in TR-FRET dilution buffer (IX; Cat # PV3574, ThermoFisher) were added. The plate was allowed to incubate at room temperature for 30 minutes before being read on a BMG Pherastar plate reader using the LanthaScreen™ filter block for LanthaScreen™ TR-FRET.
The resulting TR-FRET emission ratio was plotted against the concentration of inhibitor, and the data was fit to a sigmoidal dose-response curve with a variable slope. The IC50 for the inhibitor was calculated from the curve.

Panc-1 = test: Cell viability assay (resazurin, 96 hr) in Panc-1; assay type: cell-based; details: Homo sapiens; Panc-1 pancreatic cell line, 96 hr exposure; read-out: Panc-1_Cell Viability_IC50
Procedure: (§1) Cell Viability Assay in MIA PaCa-2 and Panc-1
(§2) MIA PaCa-2 (ATCC® CRL-1420™) and Panc-1 (CRL-1469™), both pancreatic cell lines were seeded in their respective medium (DMEM, Cat #10569044 with 10% FBS, Cat #16000044; Gibco for Panc-1 and an additional 2.5% Horse Serum, Cat #16050122; Gibco for MIA PaCa-2) at a cell count of 3000 cells per 100 μl per well in a 96 well edge plate (167425; ThermoFisher). Cells were allowed to grow at 37° C. for 24 hr in 5% CO2 (culture conditions) in a Nuaire incubator (humidified). Serially diluted compounds (100 μl) were added to the culture plate 24 hr later and the cultures (MIA PaCa-2 and Panc-1) were further incubated in culture conditions for 96 hr. Experiment was terminated at the completion of 96 hr exposure to the drug by replacing the medium with 100 μl of 1 mM of resazurin (R7017; Sigma) prepared in culture medium and the plates were further incubated in culture conditions for 4 hr. Fluorescence was then measured using a multimodal plate reader (Biotek Synergy Neo) at an excitation wavelength of 535 nm and emission wavelength of 590 nm to obtain relative fluorescence units. Data analysis was done by subtracting the background fluorescence (only medium blank) value from each reading and then normalizing with the vehicle control (DMSO treated cells) to obtain percent survival/proliferation. Percent survival at different doses was used to calculate IC50 by fitting the curve to the “four-parameter variable slope logistic model” using Prism Graph Pad.

MIA PaCa-2 = test: Cell viability assay (resazurin, 96 hr) in MIA PaCa-2; assay type: cell-based; details: Homo sapiens; MIA PaCa-2 pancreatic cell line, 96 hr exposure; read-out: MiaPaCa-2_Cell Viability_IC50
Procedure: as §1, §2

[1] = read-out: Enzyme Activity MAPK14 (p38 alpha) % Inhibition at 100 nM

Compound | inhibition at 0.1 µM (TGFBR1 (ALK5)) [%] | inhibition at 0.1 µM (MAPK14/p38α kinase; [1]) [%] | IC50 (Panc-1) [µM] | IC50 (MIA PaCa-2) [µM] | IC50 (TGFBR1 (ALK5); Table 5, read-out: ALK5 IC50) [µM] | IC50 (TGFBR1 (ALK5); Table 3, read-out: IC50 (ALK5)) [µM] | IC50 (MAPK14/p38α kinase; Table 3, read-out: IC50 (P38 alpha)) [µM] | IC50 (TGFBR1 (ALK5); Table 4, read-out: ALK5 IC50) [µM] | inhibition at 0.1 µM (MAPK14/p38α kinase; Table 4, read-out: Enzyme Activity MAPK14 (p38alpha) % Inh at 100 nM) [%]
CC(C)c1cnc(-c2ccc(F)cc2)nc1Nc1ccnc2[nH]cc(N3CCOCC3)c12 [Compound No. 5, N-(2-(4-fluorophenyl)-5-isopropylpyrimidin-4-yl)-3-morpholino-1H-pyrrolo [2,3-b] pyridin-4-amine hydrochloride] | 88 | 7 | > 30 | > 30 |  |  |  |  | 
CC(C)c1cnc(-c2ccc(F)cc2)nc1Nc1ccnc2[nH]cc(C3(O)CCNCC3)c12 [Compound No. 13, 4-(4-((2-(4-fluorophenyl)-5-isopropylpyrimidin-4-yl)amino)-1H-pyrrolo[2,3-b]pyridin-3-yl)piperidin-4-ol hydrochloride] |  |  | 17.9 | 10.9 | 0.108 |  |  |  | 
CC(C)c1cnc(-c2ccc(F)cc2)nc1Nc1ccnc2[nH]cc(N3CCN(C)CC3)c12 [Compound No. 2, N-(2-(4-fluorophenyl)-5-isopropylpyrimidin-4-yl)-3-(4-methylpiperazin-1-yl)-1H-pyrrolo [2,3-b] pyridin-4-amine hydrochloride] | 84 | 19 | 2.21 | 7.7 |  |  |  |  | 
CC(C)c1cnc(-c2ccc(F)cc2)nc1Nc1ccnc2[nH]cc(N3CCNC[C@H]3C)c12 [Compound No. 8, N-(2-(4-fluorophenyl)-5-isopropylpyrimidin-4-yl)-3-(2-methylpiperazin-1-yl)-1H-pyrrolo [2,3-b] pyridin-4-amine hydrochloride] |  |  | > 30 | > 30 |  | 0.095 | 0.061 |  | 
CC(C)c1cnc(-c2ccc(F)cc2)nc1Nc1ccnc2[nH]cc(C(=O)C(=O)N3CCN(C)CC3)c12 [Compound No. 24, 1-(4-(2-(4-fluorophenyl)-5-isopropylpyrimidin-4-ylamino)-1H-pyrrolo [2,3-b]pyridin-3-yl)-2-(4-methylpiperazin-1-yl) ethane-1,2-dione hydrochloride] |  |  | > 30 | 0.77 | 1.5 |  |  |  | 
CC(C)c1cnc(-c2ccc(F)cc2)nc1Nc1ccnc2[nH]cc(N3CCN[C@H](C)C3)c12 [Compound No. 9, (R)—N-(2-(4-fluorophenyl)-5-isopropylpyrimidin-4-yl)-3-(3-methylpiperazin-1-yl)-1H-pyrrolo[2,3-b]pyridin-4-amine hydrochloride] |  |  | 3.28 | 3.53 |  |  |  | 0.103 | 52
COc1ccc(-c2ncc(C(C)C)c(Nc3ccnc4[nH]cc(C(=O)C(N)=O)c34)n2)cc1 [Compound No. 25, 2-(4-((5-isopropyl-2-(4-methoxyphenyl)pyrimidin-4-yl)amino)-1H-pyrrolo[2,3-b]pyridin-3-yl)-2-oxoacetamide hydrochloride] |  |  | > 30 | > 30 | 2.57 |  |  |  | 
CC(C)c1cnc(-c2ccc(F)cc2)nc1Nc1ccnc2[nH]cc(N3CCC(N)CC3)c12 [Compound No. 15, 3-(4-aminopiperidin-1-yl)-N-(2-(4-fluorophenyl)-5-isopropylpyrimidin-4-yl)-1H-pyrrolo[2,3-b]pyridin-4-amine hydrochloride] |  |  | 2.96 | 5.5 | 0.245 |  |  |  | 
CNC(=O)C(=O)c1c[nH]c2nccc(Nc3cc(-c4ccc(F)cc4)ncc3C(C)C)c12 [Compound No. 21, 2-(4-((2-(4-fluorophenyl)-5-isopropylpyridin-4-yl)amino)-1H-pyrrolo[2,3-b]pyridin-3-yl)-N-methyl-2-oxoacetamide hydrochloride] |  |  | 12.7 | 10.7 | 0.574 |  |  |  | 
CC(C)c1cnc(-c2ccc(F)cc2)nc1Nc1ccnc2[nH]cc(C(=O)C(=O)N(C)C)c12 [Compound No. 16, 2-(4-((2-(4-fluorophenyl)-5-isopropylpyrimidin-4-yl)amino)-1H-pyrrolo[2,3-b]pyridin-3-yl)-N,N-dimethyl-2-oxoacetamide] |  |  | 17.1 | 10.2 | 1.92 |  |  |  | 
CC(C)c1cnc(-c2ccc(F)cc2)nc1Nc1ccnc2[nH]cc(C(=O)C(=O)N3CCOCC3)c12 [Compound No. 22, 1-(4-(2-(4-fluorophenyl)-5-isopropylpyrimidin-4-ylamino)-1H-pyrrolo [2,3-b]pyridin-3-yl)-2-morpholinoethane-1,2-dione hydrochloride] |  |  | 14.2 | > 30 | 3.95 |  |  |  | 
CCCCNC(=O)C(=O)c1c[nH]c2nccc(Nc3nc(-c4ccc(F)cc4)ncc3C(C)C)c12 [Compound No. 20, N-butyl-2-(4-(2-(4-fluorophenyl)-5-isopropylpyrimidin-4-ylamino)-1H-pyrrolo [2,3-b]pyridin-3-yl)-2-oxoacetamide hydrochloride] |  |  | > 30 | > 30 | > 5 |  |  |  | 
CC(C)c1cnc(-c2ccc(F)cc2)nc1Nc1ccnc2[nH]cc(N3CCOCC3C)c12 (stereo not shown) [Compound No. 14, N-(2-(4-fluorophenyl)-5-isopropylpyrimidin-4-yl)-3-(3-methylmorpholino)-1H-pyrrolo [2,3-b] pyridin-4-amine hydrochloride] |  |  | 11.2 | 11.1 | 3.71 |  |  |  | 
CNC(=O)C(=O)c1c[nH]c2nccc(Nc3nc(-c4ccc(F)cc4)ncc3C(C)C)c12 [Compound No. 29, 2-(4-((2-(4-fluorophenyl)-5-isopropylpyrimidin-4-yl)amino)-1H-pyrrolo[2,3-b]pyridin-3-yl)-N-methyl-2-oxoacetamide hydrochloride] |  |  | 26 | 23 | 2.77 |  |  |  | 
